The record followed here is patent US10144706B2 (BRISTOL-MYERS SQUIBB COMPANY, priority 2016, dated 2018).

The structures appear in SMILES notation. Counter-ions that a name gives are not always drawn.

The first assay deals with T1, PD-1/PD-L1 interaction (PD-1-Ig / PD-L1-His) (Homo sapiens, UniProt Q9NZQ7).
T1 construct: hPDL1(18-239)-TVMV-His; TVMV protease site linker (C); made in house; host or cells: HEK293T
T1 sequence (Q9NZQ7 with tags, fused parts or gaps): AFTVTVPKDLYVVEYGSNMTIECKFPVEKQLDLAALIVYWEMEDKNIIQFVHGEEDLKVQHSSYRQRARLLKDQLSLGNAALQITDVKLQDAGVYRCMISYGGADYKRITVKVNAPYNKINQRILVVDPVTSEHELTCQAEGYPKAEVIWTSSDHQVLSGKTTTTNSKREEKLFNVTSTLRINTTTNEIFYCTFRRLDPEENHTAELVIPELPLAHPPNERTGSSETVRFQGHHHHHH
Kind of assay: PD-1/PD-L1 Homogenous Time-Resolved Fluorescence (HTRF) binding assay. Conditions: IC50 range class; PD-L1-His 10 nM, PD-1-Ig 20 nM; read-out: Range or IC50. Summed up:
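Human PD-L1-His (10 nM final) was pre-incubated with inhibitor for 15 min, then PD-1-Ig (20 nM final) was added for a further 15 min in dPBS with 0.1% BSA and 0.05% Tween-20. Binding was detected by HTRF using Eu-cryptate anti-Ig (1 nM) and APC anti-His (20 nM).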
Background: TR-FRET usually uses a lanthanide donor and a delayed reading to cut background.
As a reminder, the IC50 is the concentration that gives 50% inhibition. Regarding `Cc1c(OCCCN2CC[C@@H](O)C2)cccc1-c1cccc(OCCCN2CC[C@@H](O)C2)c1C` [Example 3001, (3R,3′R)-1,1′-(((2,2′-dimethyl-[1,1′-biphenyl]-3,3′-diyl)bis(oxy))bis(propane-3,1-diyl))bis(pyrrolidin-3-ol)], the IC50 was 0.04 to 20 nM.
On the same count and under the same terms, under `Cc1c(OCCCCN2CC[C@@H](O)C2)cccc1-c1cccc(OCCCN2CC[C@@H](O)C2)c1C` [Example 3002, (R)-1-(3-((3′-(4-((R)-3-hydroxypyrrolidin-1-yl)butoxy)-2,2′-dimethyl-[1,1′-biphenyl]-3-yl)oxy)propyl) pyrrolidin-3-ol] stands 0.04 to 20 nM; under `Cc1c(OCCCCCN2CC[C@@H](O)C2)cccc1-c1cccc(OCCCN2CC[C@@H](O)C2)c1C` [Example 3003, (R)-1-(3-((3′-((5-((R)-3-hydroxypyrrolidin-1-yl)pentyl)oxy)-2,2′-dimethyl-[1,1′-biphenyl]-3-yl)oxy)propyl)pyrrolidin-3-ol], 0.04 to 20 nM.
As for `Cc1cc(OCCCN2CC[C@@H](O)C2)ccc1-c1cccc(OCCCCN2CC[C@@H](O)C2)c1C` [Example 3004, (R)-1-(3-((3′-(4-((R)-3-hydroxypyrrolidin-1-yl)butoxy)-2,2′-dimethyl-[1,1′-biphenyl]-4-yl)oxy)propyl) pyrrolidin-3-ol], the IC50 was in the range of 1000 to 10000 nM.
For `Cc1cc(OCCCN2CC[C@@H](O)C2)ccc1-c1cccc(OCCCCCN2CC[C@@H](O)C2)c1C` [Example 3005, (R)-1-(3-((3′-((5-((R)-3-hydroxypyrrolidin-1-yl)pentyl)oxy)-2,2′-dimethyl-[1,1′-biphenyl]-4-yl)oxy)propyl)pyrrolidin-3-ol], the half-maximal inhibitory concentration (IC50) fell in the range of 1000 to 10000 nM.
On the same count and under the same terms, under `Cc1cc(OCCCN2CC[C@@H](O)C2)ccc1-c1cccc(OCCCN2CC[C@@H](O)C2)c1C` [Example 3006, (3R,3′R)-1,1′-(((2,2′-dimethyl-[1,1′-biphenyl]-3,4′-diyl)bis(oxy))bis(propane-3,1-diyl))bis(pyrrolidin-3-ol)] stands 1000 to 10000 nM; under `Cc1c(OCCCN(C)C)cccc1-c1cccc(OCCCN2CC[C@@H](O)C2)c1C` [Example 3007, (R)-1-(3-((3′-(3-(dimethylamino)propoxy)-2,2′-dimethyl-[1,1′-biphenyl]-3-yl)oxy)propyl)pyrrolidin-3-ol], 0.04 to 20 nM.
Take `Cc1c(OCCCN2CC[C@@H](O)C2)cccc1-c1cccc(C(=O)NCCCCN2CC[C@@H](O)C2)c1C` [Example 3008, N-(4-((R)-3-hydroxypyrrolidin-1-yl)butyl)-3′-(3-((R)-3-hydroxypyrrolidin-1-yl)propoxy)-2,2′-dimethyl-[1,1′-biphenyl]-3-carboxamide]: the IC50 fell in the range of 1000 to 10000 nM.
Still for that read-out and setting: under `Cc1c(OCCCN2CC[C@@H](O)C2)cccc1-c1cccc(C(=O)NCCCN2CC[C@@H](O)C2)c1C` [Example 3009, 3′-(3-((R)-3-hydroxypyrrolidin-1-yl)propoxy)-N-(3-((R)-3-hydroxypyrrolidin-1-yl)propyl)-2,2′-dimethyl-[1,1′-biphenyl]-3-carboxamide] stands 1000 to 10000 nM.
For `Cc1c(OCCCN2CC[C@@H](O)C2)cccc1-c1cccc(OCc2cncc(C#N)c2)c1C` [Example 3011], the half-maximal inhibitory concentration (IC50) lay in the range of 20.1 to 90 nM.
Regarding `Cc1cc(OCCCN2CC[C@@H](O)C2)ccc1-c1ccc(OCCCN2CC[C@@H](O)C2)cc1C` [Example 3012, (3R,3′R)-1,1′-(((2,2′-dimethyl-[1,1′-biphenyl]-4,4′-diyl)bis(oxy))bis(propane-3,1-diyl))bis(pyrrolidin-3-ol)], the IC50 is over 10000 nM.
Regarding `Cc1c(NC(=O)CCN2CC[C@@H](O)C2)cccc1-c1cccc(OCCCN2CC[C@@H](O)C2)c1C` [Example 3013, 3-((R)-3-hydroxypyrrolidin-1-yl)-N-(3′-(3-((R)-3-hydroxypyrrolidin-1-yl)propoxy)-2,2′-dimethyl-[1,1′-biphenyl]-3-yl)propanamide], the IC50 lay in the range of 1000 to 10000 nM.
For `Cc1c(NC(=O)NCCC(=O)O)cccc1-c1cccc(OCCCN2CC[C@@H](O)C2)c1C` [Example 3014, (R)-3-(3-(3′-(3-(3-hydroxypyrrolidin-1-yl)propoxy)-2,2′-dimethyl-[1,1′-biphenyl]-3-yl)ureido)propanoic acid], the half-inhibitory concentration (IC50) was over 10000 nM.
As for `Cc1c(OCCCN2CC[C@@H](O)C2)cccc1-c1cccc(C(=O)NCCN2CC[C@@H](O)C2)c1C` [Example 3015, N-(2-((R)-3-hydroxypyrrolidin-1-yl)ethyl)-3′-(3-((R)-3-hydroxypyrrolidin-1-yl)propoxy)-2,2′-dimethyl-[1,1′-biphenyl]-3-carboxamide], the concentration for half-maximal inhibition (IC50) is over 10000 nM.
`Cc1c(OCCCN2CC[C@@H](O)C2)cccc1-c1cccc(S(=O)(=O)NCCN2CC[C@@H](O)C2)c1C` [Example 3016, N-(2-((R)-3-hydroxypyrrolidin-1-yl)ethyl)-3′-(3-((R)-3-hydroxypyrrolidin-1-yl)propoxy)-2,2′-dimethyl-[1,1′-biphenyl]-3-sulfonamide]: the IC50 was over 10000 nM.
On to `Cc1c(NC(=O)NCCN2CC[C@@H](O)C2)cccc1-c1cccc(OCCCN2CC[C@@H](O)C2)c1C` [Example 3017, 1-(2-((R)-3-hydroxypyrrolidin-1-yl)ethyl)-3-(3′-(3-((R)-3-hydroxypyrrolidin-1-yl)propoxy)-2,2′-dimethyl-[1,1′-biphenyl]-3-yl)urea], for which the IC50 was 1000 to 10000 nM.
Regarding `Cc1c(NCCCN2CC[C@@H](O)C2)cccc1-c1cccc(OCCCN2CC[C@@H](O)C2)c1C` [Example 3018, (R)-1-(3-((3′-(3-((R)-3-hydroxypyrrolidin-1-yl)propoxy)-2,2′-dimethyl-[1,1′-biphenyl]-3-yl)amino)propyl)pyrrolidin-3-ol], the IC50 was in the range of 90.1 to 1000 nM.
With `Cc1c(OCCCN2CC[C@@H](O)C2)cccc1-c1cccc(S(=O)(=O)NCCC(=O)O)c1C` [Example 3020, (R)-3-(3′-(3-(3-hydroxypyrrolidin-1-yl)propoxy)-2,2′-dimethyl-[1,1′-biphenyl]-3-ylsulfonamido)propanoic acid], the IC50 is 1000 to 10000 nM.
Regarding `Cc1ccccc1-c1ccc(OCCCN2CC[C@H](O)C2)c(OCCCN2CC[C@H](O)C2)c1` [Example 3021, (3S,3′S)-1,1′-(((2′-methyl-[1,1′-biphenyl]-3,4-diyl)bis(oxy))bis(propane-3,1-diyl))bis(pyrrolidin-3-ol)], the IC50 was over 10000 nM.
For the compound `Cc1c(OCCCN2CC[C@@H](O)C2)cccc1-c1ccc(OCCCN2CC[C@H](O)C2)c(OCCCN2CC[C@H](O)C2)c1` [Example 3022, (3S,3′S)-1,1′-(((3′-(3-((R)-3-hydroxypyrrolidin-1-yl)propoxy)-2′-methyl-[1,1′-biphenyl]-3,4-diyl)bis(oxy))bis(propane-3,1-diyl))bis(pyrrolidin-3-ol)], the half-inhibitory concentration (IC50) is over 10000 nM.
As to `Cc1c(OCCCN2CC[C@@H](O)C2)cccc1-c1cccc(OCCCN2CC[C@@H](O)C2)c1` [Example 3023, (3R,3′R)-1,1′-(((2-methyl-[1,1′-biphenyl]-3,3′-diyl)bis(oxy))bis(propane-3,1-diyl))bis(pyrrolidin-3-ol)], the half-maximal inhibitory concentration (IC50) was in the range of 90.1 to 1000 nM.
Consider `Cc1c(OCCCN2CC[C@@H](O)C2)cccc1-c1cccc(OCCCN2CC[C@@H](O)C2)c1C#N` [Example 3025, 3,3′-bis(3-((R)-3-hydroxypyrrolidin-1-yl)propoxy)-2′-methyl-[1,1′-biphenyl]-2-carbonitrile], for which the half-maximal inhibitory concentration (IC50) was 90.1 to 1000 nM.
For the compound `Cc1c(OCCCN2CC[C@@H](O)C2)cccc1-c1cccc(OCCCN2CC[C@@H](O)C2)c1C(F)(F)F` [Example 3026, (3R,3′R)-1,1′-(((2-methyl-2′-(trifluoromethyl)-[1,1′-biphenyl]-3,3′-diyl)bis(oxy))bis(propane-3,1-diyl))bis(pyrrolidin-3-ol), 2 TFA], the IC50 was in the range of 90.1 to 1000 nM.
Consider `Cc1c(OCCCN2CC[C@@H](O)C2)cccc1-c1cccc(OCCCc2ccccc2)c1` [Example 3027, (R)-1-(3-((2-methyl-3′-(3-phenylpropoxy)-[1,1′-biphenyl]-3-yl)oxy)propyl)pyrrolidin-3-ol], for which the IC50 lay in the range of 1000 to 10000 nM.
In the case of `Cc1c(OCCCN2CC[C@@H](O)C2)cccc1-c1cccc(OCCCN2CCC(O)(c3ccccc3)C2)c1C` (stereo partly drawn) [Example 3028, 1-(3-((3′-(3-((R)-3-hydroxypyrrolidin-1-yl)propoxy)-2,2′-dimethyl-[1,1′-biphenyl]-3-yl)oxy)propyl)-3-phenylpyrrolidin-3-ol, 2 TFA], the half-inhibitory concentration (IC50) lay within 20.1 to 90 nM.
Same read-out and setting: in the case of `Cc1c(OCCCN2CC[C@@H](O)C2)cccc1-c1cccc(OCC2CCCN(C)C2)c1C` (stereo partly drawn) [Example 3029, (3R)-1-(3-((2,2′-dimethyl-3′-((1-methylpiperidin-3-yl)methoxy)-[1,1′-biphenyl]-3-yl)oxy)propyl)pyrrolidin-3-ol] it was 0.04 to 20 nM; in that of `O[C@@H]1CCN(CCC2COc3ccc(-c4ccc5c(c4)OC(CCN4CC[C@@H](O)C4)CO5)cc3O2)C1` (stereo partly drawn) [Example 3032, (3R,3′R)-1,1′-((2,2′,3,3′-tetrahydro-[6,6′-bibenzo[b][1,4]dioxine]-3,3′-diyl)bis(ethane-2,1-diyl))bis(pyrrolidin-3-ol)], 20.1 to 90 nM.

The assay is the same for the next values; noted with them: numeric IC50; PD-L1-His 10 nM, PD-1-Ig 20 nM; read-out: Range or IC50.
`Cc1c(OCCCN2CC[C@@H](O)C2)cccc1-c1cccc(S(=O)(=O)NCCCN(C)C)c1C` [Example 3010, (R)—N-(3-(dimethylamino)propyl)-3′-(3-(3-hydroxypyrrolidin-1-yl)propoxy)-2,2′-dimethyl-[1,1′-biphenyl]-3-sulfonamide]: the concentration for half-maximal inhibition (IC50) came out at 10000 nM.
For the compound `Cc1c(OCCCN2CC[C@@H](O)C2)cccc1-c1cccc(OCc2cccc(C#N)c2)c1C` [Example 3019, (R)-3-(((3′-(3-(3-hydroxypyrrolidin-1-yl)propoxy)-2,2′-dimethyl-[1,1′-biphenyl]-3-yl)oxy)methyl)benzonitrile], the IC50 was found to be 106 nM.
The same measure, in the same setting: in the case of `Cc1c(OCCCN2CC[C@@H](O)C2)cccc1-c1cccc(OCCCN2CC[C@@H](O)C2)c1Cl` [Example 3024, (3R,3′R)-1,1′-(((2-chloro-2′-methyl-[1,1′-biphenyl]-3,3′-diyl)bis(oxy))bis(propane-3,1-diyl))bis(pyrrolidin-3-ol)] it was 12 nM.
